Laboratory results reported in the supplement of paper PMC4932681.

Legend:
[1] = tested on: BT-474; test: drug sensitivity score (DSS) (DSS (dimensionless)); higher = more sensitive; extreme values may be limits of the assay; conditions: 72 h
Experimental: (§1)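 FIMM FO2B library drugs were tested at 5 concentrations (10,000-fold range) for 72 h, with CellTiter-Glo viability normalised to DMSO and benzethonium chloride controls. The Drug Sensitivity Score (DSS) is computed from the fitted logistic dose-response curve (area-based; 0 = inactive). Resistant lines and the 'in 1µM tamoxifen' arms were tested in 1 µM 4-OH-tamoxifen.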

[2] = tested on: ZR-75-1 Tam1; test: as above; conditions: 4-OH-tamoxifen in medium 1 µM; 72 h
Experimental: as §1

[3] = tested on: BT-474 Tam2; test: as above; conditions: 4-OH-tamoxifen in medium 1 µM; 72 h
Experimental: as §1

[4] = tested on: ZR-75-1 Tam2; test: as above; conditions: 4-OH-tamoxifen in medium 1 µM; 72 h
Experimental: as §1

[5] = tested on: T-47D; test: as above; conditions: 72 h
Experimental: as §1

[6] = tested on: MCF-7 Tam1; test: as above; conditions: 4-OH-tamoxifen in medium 1 µM; 72 h
Experimental: as §1

[7] = tested on: ZR-75-1; test: as above; conditions: 72 h
Experimental: as §1

[8] = tested on: BT-474 Tam1; test: as above; conditions: 4-OH-tamoxifen in medium 1 µM; 72 h
Experimental: as §1

[9] = tested on: T-47D Tam1; test: as above; conditions: 4-OH-tamoxifen in medium 1 µM; 72 h
Experimental: as §1

[10] = tested on: MCF-7; test: as above; conditions: 72 h
Experimental: as §1

[11] = tested on: T-47D Tam2; test: as above; conditions: 4-OH-tamoxifen in medium 1 µM; 72 h
Experimental: as §1

[12] = tested on: BT-474; test: relative IC50 (midpoint of fitted logistic curve, plateau may be below 50% inhibition; CellTiter-Glo viability); higher = less potent; conditions: 72 h
Experimental: (§2)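 FIMM FO2B library drugs were plated at 5 concentrations spanning a 10,000-fold range in 384-well plates. Cells were incubated for 72 h at 37 °C and viability was read by CellTiter-Glo, normalised to DMSO (0% inhibition) and 100 µM benzethonium chloride (100% inhibition). IC50 values come from logistic dose-response fits (Breeze pipeline). Tamoxifen-resistant lines and the 'in 1µM tamoxifen' parental arms were tested in medium with 1 µM 4-OH-tamoxifen.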

[13] = tested on: BT-474 Tam2; test: as above; conditions: 4-OH-tamoxifen in medium 1 µM; 72 h
Experimental: as §2

[14] = tested on: T-47D; test: as above; conditions: 72 h
Experimental: as §2

[15] = tested on: MCF-7 Tam1; test: as above; conditions: 4-OH-tamoxifen in medium 1 µM; 72 h
Experimental: as §2

[16] = tested on: BT-474 Tam1; test: as above; conditions: 4-OH-tamoxifen in medium 1 µM; 72 h
Experimental: as §2

[17] = tested on: MCF-7; test: as above; conditions: 72 h
Experimental: as §2

[18] = tested on: ZR-75-1 Tam1; test: as above; conditions: 4-OH-tamoxifen in medium 1 µM; 72 h
Experimental: as §2

[19] = tested on: ZR-75-1 Tam2; test: as above; conditions: 4-OH-tamoxifen in medium 1 µM; 72 h
Experimental: as §2

[20] = tested on: ZR-75-1; test: as above; conditions: 72 h
Experimental: as §2

[21] = tested on: T-47D Tam1; test: as above; conditions: 4-OH-tamoxifen in medium 1 µM; 72 h
Experimental: as §2

| SMILES | drug sensitivity score ([1]; 4-OH-tamoxifen in medium 0 µM) | drug sensitivity score ([1]; 4-OH-tamoxifen in medium 1 µM) | drug sensitivity score [2] | drug sensitivity score [3] | drug sensitivity score [4] | drug sensitivity score ([5]; 4-OH-tamoxifen in medium 0 µM) | drug sensitivity score ([5]; 4-OH-tamoxifen in medium 1 µM) | drug sensitivity score [6] | drug sensitivity score ([7]; 4-OH-tamoxifen in medium 0 µM) | drug sensitivity score ([7]; 4-OH-tamoxifen in medium 1 µM) | drug sensitivity score [8] | drug sensitivity score [9] | drug sensitivity score ([10]; 4-OH-tamoxifen in medium 0 µM) | drug sensitivity score ([10]; 4-OH-tamoxifen in medium 1 µM) | drug sensitivity score [11] | relative IC50 ([12]; 4-OH-tamoxifen in medium 0 µM) [µM] | relative IC50 ([12]; 4-OH-tamoxifen in medium 1 µM) [µM] | relative IC50 [13] [µM] | relative IC50 ([14]; 4-OH-tamoxifen in medium 0 µM) [µM] | relative IC50 ([14]; 4-OH-tamoxifen in medium 1 µM) [µM] | relative IC50 [15] [µM] | relative IC50 [16] [µM] | relative IC50 ([17]; 4-OH-tamoxifen in medium 0 µM) [µM] | relative IC50 ([17]; 4-OH-tamoxifen in medium 1 µM) [µM] | relative IC50 [18] [µM] | relative IC50 [19] [µM] | relative IC50 ([20]; 4-OH-tamoxifen in medium 0 µM) [µM] | relative IC50 ([20]; 4-OH-tamoxifen in medium 1 µM) [µM] | relative IC50 [21] [µM] |
| --- | --- | --- | --- | --- | --- | --- | --- | --- | --- | --- | --- | --- | --- | --- | --- | --- | --- | --- | --- | --- | --- | --- | --- | --- | --- | --- | --- | --- | --- |
| Nc1nc(Cl)nc2c1ncn2[C@H]1C[C@H](O)[C@@H](CO)O1 [Cladribine] | 0 | 0 | 0.538 | 0 | 1.16 | 0 | 0 | 0 | 0.0944 | 0.126 | 0 | 0.899 | 0 | 0 | 0 | > 1 | > 1 | > 1 | > 1 | > 1 | > 1 | > 1 | > 1 | > 1 |  |  |  |  |  |
| Cn1cc(C2=Nc3cc(NC(=O)C(N)C4CCCCC4)cc4c3C2=CNNC4=O)cn1 (stereo unspecified) | 0 | 0 | 0 | 0 | 0 | 0 | 0.174 | 0 | 0 | 0 | 0 | 4.76 | 2.19 | 0.0458 | 2.29 | > 10 | > 10 | > 10 | > 10 |  |  | > 10 | 1.89 |  | > 10 | > 10 | > 10 | > 10 | 1.41 |
| CO[C@H]1C[C@@H]2CC[C@@H](C)[C@@](O)(O2)C(=O)C(=O)N2CCCC[C@H]2C(=O)O[C@H]([C@H](C)C[C@@H]2CC[C@@H](OP(C)(C)=O)[C@H](OC)C2)CC(=O)[C@H](C)/C=C(\C)[C@@H](O)[C@@H](OC)C(=O)[C@H](C)C[C@H](C)/C=C/C=C/C=C/1C [Ridaforolimus] | 6.16 | 0 | 5.15 | 2.86 | 10.1 | 4.69 | 1.51 | 0.718 | 8.67 | 4.9 | 2 | 5.75 | 12.2 | 5.81 | 2.97 |  | > 0.1 |  | 0.00563 |  |  |  | 0.00103 | 0.00328 | 0.00327 | 0.001 | 0.00123 | 0.00176 | 0.00206 |
| O=C1NC(=O)[C@@H](c2cn3c4c(cccc24)CCC3)[C@@H]1c1c[nH]c2ccccc12 [Tivatinib (ARQ 197)] | 1.2 | 3.08 | 0 | 0 | 0 | 1.88 | 0 | 0 | 0.524 | 0 | 0.142 | 0.827 | 3.81 | 0.0182 | 0.839 | 0.401 | 0.223 |  | 0.364 |  | > 1 |  |  |  | > 1 | > 1 |  |  |  |
| Nc1ncn([C@@H]2O[C@H](CO)[C@@H](O)[C@H]2O)c(=O)n1 [Azacitidine] | 0.0007 | 0.194 | 0.0216 | 0.198 | 0 | 0.134 | 0 | 0 | 0.0144 | 0 | 0 | 0.8 | 1.55 | 0 | 0.867 |  |  |  |  | > 10 | > 10 | > 10 | 2.96 | > 10 |  | > 10 |  | > 10 |  |
| CC[C@@H]1C(=O)N(C)c2cnc(Nc3ccc(C(=O)N[C@H]4CC[C@H](N5CCN(CC6CC6)CC5)CC4)cc3OC)nc2N1C(C)C [Volasertib (BI 6727)] | 1.47 | 7.11 | 1.07 | 0 | 0.29 | 1.16 | 2.85 | 0 | 0 | 0.706 | 0.654 | 2.19 | 2.8 | 7 | 2.13 |  |  | > 1 | 0.361 |  | > 1 |  |  | 0.0125 |  |  | > 1 |  |  |
| CNC(=O)c1cc(Oc2ccc(NC(=O)Nc3ccc(Cl)c(C(F)(F)F)c3)c(F)c2)ccn1 [Regorafenib (BAY 73-4506)] | 1.48 | 3.22 | 0.695 | 5.3 | 2.33 | 1.1 | 0.365 | 0 | 0.232 | 0.299 | 4.57 | 9.09 | 2.49 | 1.46 | 0.22 | 3.83 | 3.94 | 2.43 |  |  |  | 3.61 | 3.54 | 3.34 |  | 1.94 |  |  | 0.37 |
| Cn1c(=O)c(F)c(Nc2ccc(I)cc2F)c2c(=O)n(C[C@@H](O)CO)cnc21 [TAK-733] | 0 | 2.56 | 0 | 2.4 | 0 | 0 | 0 | 0 | 0 | 0 | 0 | 3.14 | 1.63 | 5.38 | 0.474 | > 1 |  |  | > 1 | > 1 | > 1 |  |  |  | > 1 | > 1 | > 1 | > 1 |  |
| COc1cc2/c(=N/c3ccc(Br)cc3F)nc[nH]c2cc1OCC1CCN(C)CC1 [Vandetanib  (ZD6474, Zactima)] | 0 | 0 | 0 | 0.605 | 0 | 0 | 0 | 0 | 0 | 0 | 0.381 | 0.009 | 0.65 | 0.193 | 1.6 | > 1 | > 1 |  | > 1 | > 1 | > 1 |  |  |  | > 1 | > 1 | > 1 | > 1 |  |
| Cn1cnc2c(F)c(Nc3ccc(Br)cc3Cl)c(C(=O)NOCCO)cc21 [Selumetinib  (AZD6244)] | 0 | 2.57 | 0 | 0 | 0 | 0 | 0 | 0.168 | 0 | 0 | 0.393 | 8.55 | 0.0626 | 1.86 | 0.0086 | > 10 |  | > 10 | > 10 | > 10 |  |  |  |  | > 10 | > 10 | > 10 | > 10 | 0.975 |
| COc1cc2c(cc1O)CC[C@@H]1[C@@H]2CC[C@]2(C)[C@@H](O)CC[C@@H]12 [2-methoxyestradiol  (Panzem)] | 3.19 | 3.93 | 0 | 0.943 | 0 | 0.97 | 0 | 0 | 1.28 | 0 | 0.83 | 0.761 | 3.15 | 0.767 | 1.01 | 2.5 | 2.75 |  |  | > 10 | > 10 |  |  |  | > 10 | > 10 | 4.13 | > 10 |  |
| CO[C@H]1C[C@@H]2CC[C@@H](C)[C@@](O)(O2)C(=O)C(=O)N2CCCC[C@H]2C(=O)O[C@H]([C@H](C)C[C@@H]2CC[C@@H](OC(=O)C(C)(CO)CO)[C@H](OC)C2)CC(=O)[C@H](C)/C=C(\C)[C@@H](O)[C@@H](OC)C(=O)[C@H](C)C[C@H](C)/C=C/C=C/C=C/1C [Temsirolimus] | 0.668 | 0 | 4.48 | 0.262 | 8.51 | 3.79 | 0.468 | 0.189 | 8.12 | 4.72 | 1.35 | 5.45 | 10.3 | 6.12 | 2.09 |  | > 0.1 |  |  |  |  |  | 0.000493 | 0.002 | 0.00267 | 0.00108 | 0.000917 |  | 0.00204 |
| Cc1sc2c(c1C)C(c1ccc(Cl)cc1)=N[C@@H](CC(=O)OC(C)(C)C)c1nnc(C)n1-2 [(+)JQ1] | 6.3 | 7.87 | 7.1 | 8.29 | 6.24 | 5.63 | 2.13 | 0.216 | 3.81 | 4.27 | 8.34 | 11 | 12.8 | 6.92 | 2.91 | 0.136 | 1.06 | 1.12 | 0.345 |  |  | 1.14 | 0.189 | 0.851 | 0.238 | 0.336 |  | 0.359 | 0.146 |
| O=C(Nc1ccncc1)C(=O)c1cn(Cc2ccc(Cl)cc2)c2ccccc12 [Indibulin] | 0.543 | 4.58 | 0.0575 | 3.18 | 0.106 | 0 | 0.395 | 0 | 0.997 | 0 | 0 | 3.37 | 8.82 | 6.28 | 0.194 |  | 0.474 |  | > 10 |  | > 10 | > 10 | 0.032 | 0.189 |  |  |  | > 10 |  |
| CO[C@@H]1[C@H](N(C)C(=O)c2ccccc2)C[C@H]2O[C@]1(C)n1c3ccccc3c3c4c(c5c6ccccc6n2c5c31)C(=O)NC4 [Midostaurin (PKC412)] | 3.45 | 7.09 | 0 | 1.88 | 0 | 1.37 | 3.14 | 1.28 | 0 | 0 | 0.189 | 3.03 | 0.329 | 0.519 | 1.85 |  | 0.305 |  |  | 1.81 |  |  |  |  | > 10 | > 10 | > 10 | > 10 | 1.49 |
